Where two headings read alike, the source gives them in different places.
What was measured:
SLE patients [1] = settings: cited from earlier work
[2] = test system: peripheral blood lymphocytes (PBL) of SLE patients; settings: cited from earlier work
SLE patients [3] = assay: PRELUDE phase 2 study, three doses of subcutaneously injected Edratide, 26 weeks; settings: for AE incidence: placebo 79.3%; for early withdrawal due to AE: placebo 2.3%
Procedure: (§1) The PRELUDE Study was a phase 2, multinational, multicenter, randomized, double-blind, placebo-controlled, multiple-dose, parallel group study to assess the efficacy, tolerability and safety of three doses of subcutaneously injected Edratide in SLE patients.
(§2) The total study treatment duration was 26 weeks. Scheduled visits were performed at screening, baseline and at weeks 4, 8, 12, 16, 20, 24, and 26 (termination). […] Non-compliance with the tapering down scheme was not regarded as a protocol violation. During the entire course of the study it was allowed to increase the steroid prednisolone dose to up to 60 mg. Use of intravascular/intramuscular steroid was considered a protocol violation. […] Edratide and CAPTISOL® pharmacokinetic (PK) profiles were characterized in a small group of patients. PK assessment of CAPTISOL® for all four treatment groups was conducted following the first dose and Weeks 12 and 26 doses. Disease and drug related immunology parameters were tested at baseline and at several time points thereafter.
(§3) The co-primary end-points presented in their hierarchical order below were: • Change from baseline to last observed value (LOV) in SLEDAI 2K score (Landmark Analysis.) • Adjusted Mean SLEDAI 2K (AMS). AMS represents the time weighted average of disease activity as measured by SLEDAI 2K score [area under the curve (AUC) of SLEDAI 2K].
(§4) Secondary End-Points: • BILAG proportion of responders. BILAG responders were defined as: • a. Non Responder (NR)—same BILAG score in Last Observed Value (LOV) as in baseline in all systems or new A or B in at least one system compared to baseline (other systems may improve or deteriorate). • b. […] Change from baseline to LOV • SF-36 (QoL) Physical component Score—Change from Baseline to LOV • Time Weighted Average (TWA) on cumulative steroids dose with p.o. administration.
(§5) Exploratory End-Points: • Primary end-point sensitivity analysis to steroid increase (excluding the observations following steroid increase) • Proportions of Zero SLEDAI Score at LOV • Time to Zero SLEDAI Score • BILAG Total Score—Change from Baseline to LOV
(§6) Flares Analysis: • Time to medicinal flare • Time to new BILAG A or at least two new B's • Time to new BILAG A or at least two new B's (excluding persistent activity) • Steroid dose (PO)—Change from baseline to LOV • PGA—Physician's Global Assessment

[4] = test system: mice afflicted with spontaneous or experimental SLE; settings: mouse, in vivo; cited from earlier work
SLE patients [5] = settings: in vivo
Procedure: as §1, §2, §3, §4, §5, §6

SLE patients [6] = settings: cited from earlier work; for incidence of adverse events (AEs): placebo 75%

CC[C@H](C)[C@H](NC(=O)[C@H](Cc1c[nH]c2ccccc12)NC(=O)[C@H](CO)NC(=O)[C@H](Cc1c[nH]c2ccccc12)NC(=O)[C@H](Cc1ccc(O)cc1)NC(=O)[C@H](Cc1ccc(O)cc1)NC(=O)CN)C(=O)C[C@@H](CCCNC(=N)N)C(=O)N[C@@H](CCC(N)=O)C(=O)N1CCC[C@H]1C(=O)N1CCC[C@H]1C(=O)NCC(=O)N[C@@H](CCCCN)C(=O)NCC(=O)N[C@@H](CCC(=O)O)C(=O)N[C@@H](CCC(=O)O)C(=O)N[C@@H](Cc1c[nH]c2ccccc12)C(=O)N[C@H](C(=O)NCC(=O)O)[C@@H](C)CC (stereo in doubt) [Edratide, H-Gly-Tyr-Tyr-Trp-Ser-Trp-Ile-Arg-Gln-Pro-Pro-Gly-Lys-Gly-Glu-Glu-Trp-Ile-Gly-OH]
subjects with increase in total SLEDAI-2K score of 0-3 points (SLE patients [1]; 0.5 mg group): Two
subjects with increase in total SLEDAI-2K score of 0-3 points (SLE patients [1]; 2.5 mg group): 2 subjects
overall incidence of AEs between all treatment groups (SLE patients [1]; 0.5, 1 or 2.5 mg sc twice weekly for 4 weeks vs placebo): no prominent difference
severity of injection site reactions (SLE patients [1]; all injection site reactions, majority resolved on day of injection): mild
subjects reporting AEs during 8-week follow-up period (off-drug) (SLE patients [1]; all treatment groups): Approximately 50%
adjusted mean SLEDAI (AMS) score change, baseline to termination visit (SLE patients [1]; all treatment groups, decreased (improved)): −0.1 to −1.5 points
trend in mean group total BILAG score (SLE patients [1]; any treatment group): No trend
SAE throughout the study (SLE patients [1]; in vivo): No SAE was reported
incidence of AEs during 8-week follow-up period (off-drug), active groups vs placebo (SLE patients [1]; in vivo): no prominent difference
proliferative response of PBL of SLE patients to the human anti-DNA 16/6Id mAB [2]: inhibit the proliferative response
Serious Adverse Events (SAEs), number of subjects (SLE patients [3]; 0.5 mg): 6 subjects
change in SF-36 mental score compared to placebo (SLE patients [3]; 0.5 mg): slightly better
change in SF-36 physical score compared to placebo (SLE patients [3]; 0.5 mg): opposite trend
early withdrawal due to AE, number of subjects (SLE patients [3]; 0.5 mg): 5 subjects
post hoc analysis on BILAG responders, system improved (SLE patients [3]; 0.5 mg): improvement mainly in the cutaneous system
subjects who prematurely terminated the study (SLE patients [3]; 0.5 mg (84 randomized)): Thirteen
deaths during the study (SLE patients [3]; 0.5 mg group): One
relation of death to study drug as classified by investigators (SLE patients [3]; 0.5 mg group, most probably septic shock): not related to the study drug
AE incidence (SLE patients [3]; 0.5 mg weekly): 82.1%
BILAG substantial responders (SLE patients [3]; 0.5 mg, ITT, LOV vs baseline, placebo 22%, p=0.03): 36%
subjects with medicinal flare (SLE patients [3]; 0.5 mg, ITT, post hoc, placebo 29%, p=0.039): 17%
BILAG substantial response odds ratio (OR) vs placebo (SLE patients [3]; 0.5 mg, ITT, p=0.03): 2.09
medicinal flare OR vs placebo (SLE patients [3]; 0.5 mg, ITT, p=0.039): 0.43
BILAG substantial responders (SLE patients [3]; 0.5 mg, no steroids at baseline, placebo 13%, p=0.05): 54%
early withdrawal due to AE (SLE patients [3]; 0.5 mg): 6.0%
Serious Adverse Events (SAEs) incidence (SLE patients [3]; 0.5 mg, placebo 10.3%): 7.1%
Serious Adverse Events (SAEs), number of subjects (SLE patients [3]; 1.0 mg): 10 subjects
early withdrawal due to AE, number of subjects (SLE patients [3]; 1.0 mg): 3 subjects
subjects who prematurely terminated the study (SLE patients [3]; 1.0 mg (87 randomized)): 13 subjects
subjects with zoster (SLE patients [3]; 1 mg group): 2 subjects
AE incidence (SLE patients [3]; 1 mg weekly): 77%
proportion of BILAG substantial responders compared to placebo (SLE patients [3]; 1 mg, lesser extent than 0.5 mg): trend toward increasing the proportion of substantial responders
BILAG substantial response OR vs placebo (SLE patients [3]; 1 mg, p=0.07 without correction for multiple comparison): 1.85
early withdrawal due to AE (SLE patients [3]; 1.0 mg): 3.4%
Serious Adverse Events (SAEs) incidence (SLE patients [3]; 1.0 mg, placebo 10.3%): 11.5%
Serious Adverse Events (SAEs), number of subjects (SLE patients [3]; 2.5 mg): 8 subjects
early withdrawal due to AE, number of subjects (SLE patients [3]; 2.5 mg): 3 subjects
subjects who prematurely terminated the study (SLE patients [3]; 2.5 mg (82 randomized)): 11 subjects
AE incidence (SLE patients [3]; 2.5 mg weekly): 75.6%
early withdrawal due to AE (SLE patients [3]; 2.5 mg): 3.7%
Serious Adverse Events (SAEs) incidence (SLE patients [3]; 2.5 mg, placebo 10.3%): 9.8%
cSRI positive responders (SLE patients [3]; ITT (FIG. 4), placebo 20%, p=0.058): 34%
safety signal from AEs analysis and additional safety data (SLE patients [3]; all Edratide doses, no clear dose response): no significant safety signal
co-primary endpoints (change in SLEDAI 2K score baseline to LOV; AMS), active groups vs placebo (SLE patients [3]; any of the active treatment groups): no differences
SF-36 mental or physical scores, differences between treatment groups (SLE patients [3]; in vivo): No clinically or statistically significant differences
cumulative change in steroid dose throughout the study, differences between treatment groups (SLE patients [3]; in vivo): No clinically or statistically significant differences
early terminations due to AEs, Edratide vs placebo (SLE patients [3]; in vivo): more often
SAE incidence (SLE patients [3]; pooled Edratide group, placebo 10.3%): 9.5%
BILAG substantial response OR vs placebo (SLE patients [3]; prednisolone dose <20 mg at baseline, p=0.007): 2.75
BILAG substantial responders (SLE patients [3]; prednisolone dose <20 mg at baseline, placebo 19%, p=0.007 (FIG. 2B)): 40%
mean reduction from baseline SLEDAI-2K score (SLE patients [3]; regardless of treatment): about 35%
BILAG substantial responders (SLE patients [3]; seropositive patients (anti-DNA>30 IU), placebo 26% (FIG. 2C)): 46%
BILAG non-responders (SLE patients [3]; seropositive patients (anti-DNA>30 IU), placebo 68%, p=0.05): 42%
disease manifestations of mice afflicted with spontaneous or experimental SLE [4]: ameliorate disease manifestations
subjects with herpes simplex (SLE patients [5]): 8 subjects
subjects with herpes viral infections (SLE patients [5]): 11 subjects
subjects with herpes zoster (SLE patients [5]): 3 subjects
increase of total SLEDAI-2K score in one subject (SLE patients [6]; 0.5 mg group, Week 4 after dosing, not confirmed as lupus flare): 2 to 10 points
change of total SLEDAI-2K score (SLE patients [6]; any subject during the study, except one subject in the 0.5 mg group): No noteworthy change
incidence of adverse events (AEs) (SLE patients [6]; single sc injection 0.5 mg, % of the subjects): 33%
incidence of adverse events (AEs) (SLE patients [6]; single sc injection 1 mg): 67%
incidence of adverse events (AEs) (SLE patients [6]; single sc injection 2.5 mg): 80%
